From patent publication US8691210B2, “Methods and compositions for generating an immune response by inducing CD40 and pattern recognition receptors and adaptors thereof” (priority 2006, dated 2014)

Key:
[1] = system: BMDCs; assay: In vitro serum-starvation DC survival assay (propidium iodide); format: cell-based, murine; details: relative to non-transduced DCs treated with CD40L or untreated BMDCs
From the text: In addition to DC activation state, DC longevity is another critical variable that influences the generation of T cell-dependent immunity. In fact, CTL-mediated killing of DCs is considered to be a significant mechanism for modulating immune responses while protecting the host from autoimmune pathologies^55,56. Other work has established that CD40 stimulation of DCs prolongs their survival by a variety of mechanisms, including upregulation of the anti-apoptotic protein bcl-XL and the granzyme B inhibitor, Spi-6^57,58. The effects of iCD40 relative to CD40L on DC survival were compared in an in vitro serum-starvation culture assay (FIG. 11E).

[2] = system: human DCs; assay: Cytokine (IL-12p70, IL-6) ELISA of human DC culture supernatants; format: cell-based; details: iCD40-DCs stimulated with the named TLR ligand
Description: Approximately 2×10^6 cells/ml were cultured in a 24-well dish and transduced with adenoviruses at 10,000 viral particle (vp)/cell (−160 MOI) for 90 min at 37° C. and 5% CO2. Immediately after transduction DCs were stimulated with MPL, FSL-1, Pam3CSK4 (InvivoGen, San Diego, Calif.), LPS (Sigma-Aldrich, St. Louis, Mo.), AP20187 (kind gift from ARIAD Pharmaceuticals, Cambridge, Mass.) or maturation cocktail (MC), containing 10 ng/ml TNF-alpha, 10 ng/ml IL-1beta, 150 ng/ml IL-6 (R&D Systems, Minneapolis, Minn.) and 1 micrograms/ml of PGE2 (Cayman Chemicals, Ann Arbor, Mich.). In T cell assays DCs were pulsed with 50 micrograms/ml of PSMA or MAGE 3 peptide 24 hours before and after adenoviral transduction.
Cell surface staining was done with fluorochrome-conjugated monoclonal antibodies (BD Biosciences, San Diego, Calif.). Cells were analyzed on a FACSCalibur cytometer (BD Biosciences, San Jose, Calif.). Cytokines were measured in culture supernatants using enzyme-linked immunosorbent assay kits for human IL-6 and IL-12p70 (BD Biosciences).

[3] = system: Naive CD4+CD45RA+ T cells; assay: Polarization of naive T helper cells; format: cell-based, human; details: tetanus toxoid-pulsed DCs, restimulation with TTp30
From the text: Naïve CD4+CD45RA+ T-cells from HLA-DR11.5-positive donors (genotyped using FASTYPE HLA-DNA SSP typing kit; BioSynthesis, Lewisville, Tex.) were isolated by negative selection using naïve CD4+ T cell isolation kit (Miltenyi Biotec, Auburn, Calif.). T cells were stimulated with autologous DCs pulsed with tetanus toxoid (5 FU/ml) and stimulated with various stimuli at a stimulator to responder ratio of 1:10. After 7 days, T cells were restimulated with autologous DCs pulsed with the HLA-DR11.5-restricted helper peptide TTp30 and transduced with adenovector Ad-iCD40. Cells were stained with PE-anti-CD4 Ab (BD Biosciences), fixed and permeabilized using BD Cytofix/Cytoperm kit (BD Biosciences), then stained with hIFN-gamma mAb (eBioscience, San Diego, Calif.) and analyzed by flow cytometry. Supernatants were analyzed using human TH1/TH2 BD Cytometric Bead Array Flex Set on BD FACSArray Bioanalyzer (BD Biosciences).

[4] = system: human SOCS1; assay: Real time Q-PCR assay for human SOCS1 in DCs; format: cell-based
From the text: Total RNA was purified and reverse transcribed with random hexamers using SuperScript II RTase (Invitrogen, Carlsbad, Calif.). mRNA levels were quantified in DCs by subjecting cDNA to TaqMan PCR analysis using the GeneAmp 5700 Sequence Detection System (Applied Biosystems, Foster City, Calif.). Pre-developed sequence detection reagents (Applied Biosystems) specific for human SOCS1 and 18S rRNA, including forward and reverse primers as well as a fluorogenic TaqMan FAM-labeled hybridization probe, were supplied as mixtures and were used at 1 microliter/20 microliter PCR. Samples were run in duplicates. The level of SOCS1 expression in each sample was normalized to the level of 18S rRNA from the same sample using the comparative 2-ΔΔCT method^21.

[5] = system: primary bone marrow-derived DCs (BMDCs); assay: iCD40 functionality in primary BMDCs (surface markers, intracellular IL-12 staining); format: cell-based, murine; details: stimulation with LPS and CD40L
From the text: A helper-dependent, […] adenoviral vector, named Ad-iCD40-GFP, was engineered to express both iCD40 and EGFP under the control of the CMV early/immediate promoter/enhancer. Ad-iCD40-GFP successfully transduced and expressed the iCD40 transgene, as well as the EGFP marker, in purified BMDCs (FIG. 11A,B). […] The effects of Ad-iCD40-GFP on BMDCs using intracellular cytokine staining to evaluate DC expression of the TH1-polarizing cytokine, IL-12 was then investigated. These findings confirmed numerous previous reports that an empty adenoviral vector can contribute to background fluorescence readings by stimulating the production of low levels of this cytokine. (FIG. 11D)^53. […] However, AP20187 exposure of these iCD40-expressing DCs managed to reproducibly overcome these cumulative effects to further increase the percentage of IL-12′ DCs.

[6] = system: BMDCs; assay: BMDC survival (GM-CSF deprivation, wortmannin); format: cell-based
Description: To further test the hypothesis that PI3K and Akt are common regulators for innate and acquired immune signal-mediated DC survival, various concentrations (0.05-5 μM) of PI3K inhibitor, wortmannin, in BMDCs treated with LPS or anti-CD40 were tested.
To more directly investigate the role of Akt in PI3K-mediated DC survival, a previously described constitutively active Akt (M-Akt) allele, consisting of full length Akt, targeted to intracellular membranes with a myristoylation-targeting sequence from c-Src^62 was used. […] Therefore, to test the possibility that the efficient lipid raft localization of Akt improve its functions, this construct was compared with several distinct deregulated Akt alleles, containing myristoylation-targeting sequences from Src family kinases Src, Fyn and Lck fused to AAkt. The pleckstrin homology (PH) domain (residues 1-102) was removed to further improve Akt activity when PI3K is limiting^64. […] Therefore, MF-ΔAkt was used in subsequent experiments. Moreover, for improved expression in BMDCs, replication-defective adenovirus, Ad-MF-ΔAkt, expressing functionally optimized Akt was generated. Consistently, Ad-MF-ΔAkt led to higher GSK3α/β phosphorylation in BMDCs, compared with Ad-M-Akt^62. […] Thus, functionally optimized Akt almost completely suppresses induction of DC death by PI3K (but not Src) inhibition. […]

Row | Molecule | IL12-p70 induced by TLR ligand in iCD40-DCs [2] | Time of peak IL-12p70/p40 synthesis [5] [h] | also measured
1 | CC[C@H](C(=O)N1CCCC[C@H]1C(=O)O[C@H](CCc1ccc(OC)c(OC)c1)c1cccc(OCC(=O)NCC(CNC(=O)COc2cccc([C@@H](CCc3ccc(OC)c(OC)c3)OC(=O)[C@@H]3CCCCN3C(=O)[C@@H](CC)c3cc(OC)c(OC)c(OC)c3)c2)CN(C)C)c1)c1cc(OC)c(OC)c(OC)c1 [AP20187] |  |  | DC longevity [1]: even further enhanced this survival effect
2 | monophosphoryl lipid A [MPL] | synergized with CD40 signaling |  | IFN-gamma production in CD4+ T cells [3]: not induced
3 | Lipopolysaccharide [LPS] | synergized with CD40 signaling | 8 | SOCS1 induction [4]: up-regulated SOCS1 expression; Protection against GM-CSF deprivation-mediated DC death [6]: protect against GM-CSF deprivation-mediated DC death
4 | FSL-1 | only low levels |  | 
5 | Pam3 CSK4 | only low levels |  | 
6 | CD40L: CD40 ligand (Alexis Biochemicals) (protein) GDQNPQIAAHVISEASSKTTSVLQWAEKGYYTMSNNLVTLENGKQLTVKRQGLYYIYAQVTFCSNREASSQAPFIASLCLKSPGRFERILLRAANTHSSAKPCGQQSIHLGGVFELQPGASVFVNVTDPSQVSHGTGFTSFGLLKL |  | 8 | 
